One molecule from US11976070B1, “Substituted pyrimido[6’, 1’:2,3]imidazo[4,5-c][1,6]naphthyridines as CK2 inhibitors” (KING FAISAL UNIVERSITY, priority 2023, dated 2024) can be followed below.

In one assay the test system is PC3 (prostate). As to the kind of experiment: In vitro cytotoxic activity (MTT) assay, PC3. The following applies: Homo sapiens, Prostate cell; PC3 (prostate) cells, exposed for 96 hours; read-out: IC50, 50% inhibition of cell proliferation. Format: cell-based. On the procedure: (§1) Compounds 1-12 were screened for their in vitro cytotoxic activity utilizing a 3-(4,5-dimethyl-thiazol-2-yl)-2,5-diphenyltetrazolium bromide (MTT) assay against selected cancer human cell lines consisting of PC3 (prostate), HCT116 (colon). A375 (melanoma), H1299 (lung), MIAPaCa-2 (pancreas), HL60 (leukemia), MCF7 (breast), MDA-MB-231 (breast) (T. Mosmann, J. Immunol. Meth., 1983, 65, 55-63). The cells were cultured at 37° C. in RMPI1640 medium supplemented with 10% fetal bovine serum, 50 IU/mL penicillin, and 50 μg/mL streptomycin in a 5% CO2 incubator. All cells were sub-cultured 3 times/week by trypsinisation. Viable cells were seeded and allowed to adhere for 12 h before a test drug was added in 96-well plates at an initial density of 1.0×10^5 cells/mL. Tumour cell lines were separately exposed to various concentrations of the tested compounds followed by incubation at a temperature of 37° C. during 96 h inside a medium of fresh RMPI 1640. Cells were subsequently incubated at 37° C. using MTT at 0.5 mg/mL during 4 h. After removal of supernatant, formazan crystals were dissolved in isopropanol and the optical density was measured at 570 nm. CX-4945 was used as a positive control.

The subject of the next assay is HCT116 (colon). Kind of assay: In vitro cytotoxic activity (MTT) assay, HCT116. Format: cell-based. As to conditions: Homo sapiens, HCT-116; HCT116 (colon) cells, exposed for 96 hours; read-out: IC50, 50% inhibition of cell proliferation. As for the experimental part: as §1
In another assay the test system is A375 (melanoma). Kind of assay: In vitro cytotoxic activity (MTT) assay, A375. The class given is cell-based. The following applies: Homo sapiens, A-375; A375 (melanoma) cells, exposed for 96 hours; read-out: IC50, 50% inhibition of cell proliferation. On the procedure:
as §1

The next assay deals with H1299 (lung). As to the kind of experiment: In vitro cytotoxic activity (MTT) assay, H1299. The following applies: Homo sapiens, NCI-H1299; H1299 (lung) cells, exposed for 96 hours; read-out: IC50, 50% inhibition of cell proliferation. Format: cell-based. On the procedure:
as §1

The subject of the next assay is MIAPaCa-2 (pancreas). As to the kind of experiment: In vitro cytotoxic activity (MTT) assay, MIAPaCa-2. Format: cell-based. The following applies: Homo sapiens, MIA PaCa-2; MIAPaCa-2 (pancreas) cells, exposed for 96 hours; read-out: IC50, 50% inhibition of cell proliferation. On the procedure: as §1
Another assay concerns HL60 (leukemia). Kind of assay: In vitro cytotoxic activity (MTT) assay, HL60. As to conditions: Homo sapiens, HL-60; HL60 (leukemia) cells, exposed for 96 hours; read-out: IC50, 50% inhibition of cell proliferation. The class given is cell-based. On the procedure:
as §1

A further assay has as its system MCF7 (breast). Kind of assay: In vitro cytotoxic activity (MTT) assay, MCF7. The class given is cell-based. As to conditions: Homo sapiens; MCF7 (breast) cells, exposed for 96 hours; read-out: IC50, 50% inhibition of cell proliferation. As for the experimental part: as §1
A further assay deals with MDA-MB-231 (breast). As to the kind of experiment: In vitro cytotoxic activity (MTT) assay, MDA-MB-231. Format: cell-based. As to conditions: Homo sapiens; MDA-MB-231 (breast) cells, exposed for 96 hours; read-out: IC50, 50% inhibition of cell proliferation. As for the experimental part:
as §1

The target of assay [1] is T1, recombinant human CK2 (RRββ-holoenzyme) (Homo sapiens, UniProt P68400).
T1 construct: purchased Millipore
As to the kind of experiment: CK2 Kinase Assay (radiometric, [γ-33P]ATP). Format: biochemical. As to conditions: final ATP 15 μM, 10 min at 30° C.; read-out: protein kinase CK2 inhibition IC50. On the procedure: CK2 Kinase Assay was conducted using the protocol as described in Pierre F. et al; J. Med. Chem. 2011, 54, 635-654. The tested compounds in aqueous solution were added at a volume of 10 μL to a reaction mixture comprising 10 μL of assay dilution buffer (ADB; 20 mM MOPS, pH 7.2, 25 mM β-glycerol phosphate, 5 mM EGTA, 1 mM sodium orthovanadate, and 1 mM dithiothreitol), 10 μL of substrate peptide (RRRDDDSDDD, dissolved in ADB at a concentration of 1 mM), 10 μL of recombinant human CK2 (RRββ-holoenzyme, 25 ng dissolved in ADB; Millipore). Reactions were initiated by the addition of 10 μL of ATP solution (90% 75 mMMgCl2, 75 μM ATP (final ATP concentration:15 μM) dissolved in ADB; 10% [γ-33P] ATP (stock 1 mCi/100 μL: 3000 Ci/mmol (Perkin-Elmer) and maintained for 10 min at 30° C. The reactions were quenched with 100 μL of 0.75% phosphoric acid and then transferred to and filtered through a phosphor cellulose filter plate (Millipore). After washing each well five times with 0.75% phosphoric acid, the plate was dried under vacuum for 5 min and, following the addition of 15 μL of scintillation fluid to each well, the residual radioactivity was measured using a Wallac […]. The IC50 values were derived from eight concentrations of test inhibitors.

Assay [2] deals with various human cancer cell lines. As to the kind of experiment: In vitro cytotoxic activity assay, panel statement. Format: cell-based. As for the experimental part:
as §1

Read-outs that look alike come from different tables or passages of the source.

T1 sequence (P68400 whole entry): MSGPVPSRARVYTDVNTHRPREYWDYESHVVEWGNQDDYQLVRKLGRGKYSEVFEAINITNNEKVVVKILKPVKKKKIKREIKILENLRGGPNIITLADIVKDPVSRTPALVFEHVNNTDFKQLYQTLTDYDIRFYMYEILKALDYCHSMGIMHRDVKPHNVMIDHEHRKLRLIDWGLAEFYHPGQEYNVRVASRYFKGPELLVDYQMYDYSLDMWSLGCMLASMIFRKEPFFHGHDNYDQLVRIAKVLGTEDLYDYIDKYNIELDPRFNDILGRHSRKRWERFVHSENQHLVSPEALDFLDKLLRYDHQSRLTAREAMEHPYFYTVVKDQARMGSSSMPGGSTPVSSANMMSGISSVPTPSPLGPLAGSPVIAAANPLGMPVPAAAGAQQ
T1 sequence (P67870 whole entry partner): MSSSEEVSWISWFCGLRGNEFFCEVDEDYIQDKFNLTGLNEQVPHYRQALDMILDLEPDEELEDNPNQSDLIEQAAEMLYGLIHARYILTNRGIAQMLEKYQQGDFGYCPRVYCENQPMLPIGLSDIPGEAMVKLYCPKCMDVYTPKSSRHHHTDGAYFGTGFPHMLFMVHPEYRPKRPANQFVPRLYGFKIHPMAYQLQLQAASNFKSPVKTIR

On to `Clc1cccc(Nc2nc3ccncc3c3nc4ccncn4c23)c1` [Compound 1, N-(3-chlorophenyl)pyrimido[6′,1′:2,3]imidazo[4,5-c][1,6]naphthyridin-6-amine], for which the IC50 in the assay on PC3 (prostate) was 1.4 µM; with HCT116 (colon), 1.1 µM; in the assay on A375 (melanoma) it was 2.9 µM; in the assay on H1299 (lung) it was 2.5 µM; with MIAPaCa-2 (pancreas), 0.9 µM; in the assay with HL60 (leukemia), 3.2 µM. Also, the IC50 in the assay with MCF7 (breast) came to 5.1 µM; in the assay with MDA-MB-231 (breast), 4.5 µM; in [1], 0.022 µM. For the same molecule, the “in vitro anti-proliferative activity, in words” value in assay [2] is “promising anti-proliferative activity”; in assay [2] (listed as 13), “promising in vitro anti-proliferative activity”.
